Measurements reported in patent US6359006B2, “Amphiphilic fluorine derivatives with telomeric structures; preparation procedure and biomedical applications” (Alliance Pharmaceutical Corp., priority 1990, dated 2002).

Assay: Solubility
Format: physicochemical

solubility in organic solvents (in words) (organic solvents such as AcOEt, CH3CN, CH3OH, CHCl3): soluble in organic solvents | solubility in water (in words) (water): insoluble in water
Structure (SMILES): O=C(CCSCCC(F)(F)C(F)(F)C(F)(F)C(F)(F)C(F)(F)C(F)(F)F)NC(CO)(CO)CO [monoadduct 14, N-[(trihydrozymethyl)methyl]4-thia-6-(n-perfluorohezyl) hexanamide]
